Assay results as given in US4281121A, “1,3,4-Thiadiazole-2-carboxylic acid derivatives, process for making the same and fungicidal and nematocidal compositions containing same” (Schering Aktiengesellschaft, priority 1978, dated 1981).
Where two headings read alike, the source gives them in different places.

Columns and labels:
[1] = system: Pythium ultimum; experiment: Threshold concentration test for use of the compounds against Pythium ultimum (infested soil, garden peas); assay type: in vivo; design: key to root evaluation (1-4): 4: white roots without fungous necrosis; 3: white roots, minor fungous necrosis; 2: brown roots, already more pronounced fungous necrosis; 1: heavy fungous necrosis, roots rotted; conditions: for root evaluation (1-4): 3 weeks; for number of sound peas: 20 grains per dish, 3 weeks at 20-24° C.
How it was run: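 Pulverulent agents at 20% concentration mixed evenly into soil heavily infested with Pythium ultimum, then garden peas ('Wunder von Kelvedon', 20 per dish) sown at once. After three weeks at 20–24 °C in a hothouse, sound peas counted and roots scored on a 1–4 scale.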

[2] = system: Plasmopara viticola; experiment: Prophylactic leaf treatment of grapevines in the hothouse against Plasmopara viticola; assay type: in vivo
How it was run: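 Grapevines (5–8 leaves) sprayed to runoff with compound as 20% spray powder, then after drying inoculated on leaf undersides with sporangial suspension (~20,000/ml). Incubated at 22–24 °C, saturated humidity, 3–4 days normal humidity (30–70%), then one day saturated; activity from mean % infested leaf area per treatment.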

[3] = system: Tilletia caries; experiment: Treatment of oat seeds infested with Tilletia caries (spore germination); assay type: in vivo
[4] = system: Botrytis cinerea; experiment: Prophylactic leaf treatment of tomato plants against Botrytis cinerea; assay type: in vivo; conditions: concentration of 0.025 of the active agent (unit not given)
[5] = system: Helminthosporium gramineum; experiment: Seed treatment in open field tests for infestation by Helminthosporium gramineum (barley); assay type: in vivo; conditions: summer barley; 50 g active agent/100 kg barley; about 3 months
Protocol: Seed treatment in open field tests for infestation by Helminthosporium gramineum
The active agents were used in the form of pulverulent compositions. After about 8 months in case of winter barley and after about 3 months in case of summer barley the infested plants were counted and the activity was calculated by the formula [formula]

[6] = system: Helminthosporium gram; conditions: about 5 weeks
Protocol: Treatment of barley seeds infested with Helminthosporium gram
After emergence, the plants were subjected to illumination for 12 hours per day. After about 5 weeks the infested plants were counted and the total number of plants for each test were also counted. The active agents tested were used as pulverulent compositions.

[7] = system: Piricularia oryzae; assay type: in vivo; conditions: concentration of active agent 0.1 (percentages); 5 days
[8] = system: Venturia inaequalis; experiment: Prophylactic leaf treatment of apples in open field test against Venturia inaequalis; assay type: in vivo; conditions: 3 weeks
[9] = system: Penicillium digitatum; experiment: Inhibition of fungus in a nutrient solution: Penicillium digitatum; assay type: cell-based; conditions: 6 days at 21-23° C.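 Further: 0 means no fungus growth and higher grades mean more surface covered.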
[10] = system: Botrytis cinerea; experiment: Inhibition of fungus in a nutrient solution: Botrytis cinerea; assay type: cell-based; conditions: 6 days at 21-23° C.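 Further: 0 means no fungus growth and higher grades mean more surface covered.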
[11] = system: Fusarium avenaceum; experiment: Inhibition of fungus in a nutrient solution: Fusarium avenaceum; assay type: cell-based; conditions: 6 days at 21-23° C.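 Further: 0 means no fungus growth and higher grades mean more surface covered.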
Protocol: Inhibition of fungus in a nutrient solution
20 ml of a nutrient solution of grape juice and water (1:1) were filled into a glass vial of a 100 ml capacity and were mixed with the pulverulent active agents which appear from the subsequent table. Thereafter, the solution was inoculated with conidia (spores) of the test fungi.
After an incubation time of 6 days at 21° to 23° C. the fungus development on the surface of the nutrient solution was evaluated. The test fungi used were the following: Penicillium digitatum, Botrytis cinerea, Alternaria solani, Fusarium avenaceum.
The evaluation was carried out at a scale from 0 to 5 as follows: […]

[12] = system: Alternaria solani; experiment: Inhibition of fungus in a nutrient solution: Alternaria solani; assay type: cell-based; conditions: 6 days at 21-23° C.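 Further: 0 means no fungus growth and higher grades mean more surface covered.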
[13] = system: Fusarium avenaceum; experiment: Threshold concentration test in case of Fusarium avenaceum (infested soil, garden peas); assay type: in vivo; conditions: for number of sound peas: 20 grains per dish, 18 days at 20-24° C.; for root evaluation (1-4): 18 days
How it was run: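 Soil heavily infested with Fusarium avenaceum was mixed uniformly with a 20% powder formulation of active agent, then sown immediately with 20 garden pea seeds ('Wunder von Kelvedon') per dish. After 18 days in a greenhouse at 20° to 24° C., sound plants were counted and roots scored on a 1–4 scale.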

[14] = concentration of active agent 0.001 (unit not given)
[15] = concentration of active agent 0.005 (unit not given)
[16] = concentration of active agent 0.025 (unit not given)
[17] = concentration of active agent 0.005 (in gram)
[18] = concentration of active agent 0.025 (in gram)

Row | SMILES | root evaluation (1-4) ([1]; 20 mg/l soil) | number of sound peas ([1]; 20 mg/l soil) | root evaluation (1-4) ([1]; 40 mg/l soil) | number of sound peas ([1]; 40 mg/l soil) | root evaluation (1-4) ([1]; 80 mg/l soil) | number of sound peas ([1]; 80 mg/l soil) | % activity [2, 14] [%] | % activity [2, 15] [%] | % activity [2, 16] [%] | % activity ([3]; 20 g active agent per 100 kg) [%] | % activity ([3]; 50 g active agent per 100 kg) [%] | % activity [4] [%] | % activity ([6]; 50 g active agent per 100 kg) [%] | % activity [7] [%] | fungus development on the surface of the nutrient solution (0-5) ([9]; 0.002%) | fungus development on the surface of the nutrient solution (0-5) ([9]; 0.004%) | fungus development on the surface of the nutrient solution (0-5) ([10]; 0.002%) | fungus development on the surface of the nutrient solution (0-5) ([10]; 0.004%) | fungus development on the surface of the nutrient solution (0-5) ([12]; 0.002%) | fungus development on the surface of the nutrient solution (0-5) ([12]; 0.004%) | also measured
1 | CCS(=O)(=O)c1nnc(C(=O)N2CCCC2)s1 [5-ethylsulfonyl-1,3,4-thiadiazole-2-carboxylic acid-N,N-tetramethylene-amide] | 2 | 14 | 4 | 20 | 4 | 20 | 91 | 99 | 100 | 100 | 100 | 75 | 99 | – | – | – | – | – | – | – | % activity ([3]; 10 g active agent per 100 kg): 100%; % activity [5]: 100%; % activity ([6]; 10 g active agent per 100 kg): 98%; % activity ([6]; 20 g active agent per 100 kg): 100%
2 | CCNC(=O)c1nnc([S+](C)[O-])s1 (stereo not shown) [5-methylsulfinyl-1,3,4-thiadiazole-2-carboxylic acid-ethylamide] | 2 | 18 | 4 | 18 | 4 | 19 | – | – | 96 | 100 | 100 | 75 | 100 | 90 | – | – | – | – | – | – | % activity ([6]; 10 g active agent per 100 kg): 98%; % activity ([6]; 20 g active agent per 100 kg): 99%
3 | CCCCNC(=O)c1nnc(S(C)(=O)=O)s1 [5-methylsulfonyl-1,3,4-thiadiazole-2-carboxylic acid-butylamide] | 2 | 14 | 4 | 15 | 4 | 16 | 83 | 99.1 | – | 100 | 100 | 76 | 90 | 90 | – | – | – | – | – | – | % activity [8, 17]: 94%; % activity [8, 18]: 99%; % activity ([3]; 10 g active agent per 100 kg): 99.2%; % activity [5]: 99.3%
4 | COC(=O)c1nnc(S(C)(=O)=O)s1 [5-methylsulfonyl-1,3,4-thiadiazole-2-carboxylic acid-methylester] | – | – | – | – | – | – | – | – | – | – | – | – | – | – | 1 | 0 | 1 | 0 | 1 | 0 | fungus development on the surface of the nutrient solution (0-5) ([11]; 0.002%): 0; fungus development on the surface of the nutrient solution (0-5) ([11]; 0.004%): 0
5 | CCCNC(=O)c1nnc(S(C)(=O)=O)s1 [5-methylsulfonyl-1,3,4-thiadiazole-2-carboxylic acid-propylamide] | 4 | 15 | 4 | 15 | 4 | 15 | – | 82 | 95 | 100 | 100 | 76 | 93 | 90 | – | – | – | – | – | – | % activity [8, 17]: 98%; % activity [8, 18]: 99.7%; % activity ([3]; 10 g active agent per 100 kg): 99.5%; % activity [5]: 100%
6 | CCCCCS(=O)(=O)c1nnc(C#N)s1 [5-pentylsulfonyl-1,3,4-thiadiazole-2-carbonitrile] | – | – | – | – | – | – | – | – | 90 | – | 90 | 86 | – | – | – | – | – | – | – | – | number of sound peas ([13]; 25 mg/l soil): 20; root evaluation (1-4) ([13]; 25 mg/l soil): 4; number of sound peas ([13]; 50 mg/l soil): 20; root evaluation (1-4) ([13]; 50 mg/l soil): 4; number of sound peas ([13]; 100 mg/l soil): 19; root evaluation (1-4) ([13]; 100 mg/l soil): 4
7 | CCC[S+]([O-])c1nnc(C(=O)NC(C)CC)s1 (stereo not shown) [5-propylsulfinyl-1,3,4-thiadiazole-2-carboxylic acid-sec.-butylamide] | – | – | – | – | – | – | 86 | 92 | 92 | 100 | 100 | 80 | 94 | – | – | – | – | – | – | – | number of sound peas ([13]; 25 mg/l soil): 9; root evaluation (1-4) ([13]; 25 mg/l soil): 1; number of sound peas ([13]; 50 mg/l soil): 17; root evaluation (1-4) ([13]; 50 mg/l soil): 4; number of sound peas ([13]; 100 mg/l soil): 17; root evaluation (1-4) ([13]; 100 mg/l soil): 4
8 | CCCCCCNC(=O)c1nnc(S(=O)(=O)CCC)s1 [5-propylsulfonyl-1,3,4-thiadiazole-2-carboxylic acid-hexylamide] | – | – | – | – | – | – | 88 | 98 | 100 | 100 | 100 | 78 | – | 95 | – | – | – | – | – | – | –
9 | O=C1c2ccccc2C(=O)N1SC(Cl)(Cl)Cl [N-trichloromethylmercapto-phthalimide, reference compound] | – | – | – | – | – | – | – | – | – | – | – | – | – | – | 4 (30 to 60% of the surface covered by the fungus turf) | 4 (30 to 60% of the surface covered by the fungus turf) | 4 (30 to 60% of the surface covered by the fungus turf) | 3 (10 to 30% of the surface covered by the fungus turf) | 4 (30 to 60% of the surface covered by the fungus turf) | 4 (30 to 60% of the surface covered by the fungus turf) | fungus development on the surface of the nutrient solution (0-5) ([11]; 0.002%): 4 (30 to 60% of the surface covered by the fungus turf); fungus development on the surface of the nutrient solution (0-5) ([11]; 0.004%): 4 (30 to 60% of the surface covered by the fungus turf)
10 | O=C1C2CC=CCC2C(=O)N1SC(Cl)(Cl)Cl (stereo not shown) [N-trichloromethylmercapto-tetrahydro-phthalimide, reference compound] | 1 | 1 | 1 | 2 | 2 | 8 | – | – | – | – | – | – | – | – | 4 (30 to 60% of the surface covered by the fungus turf) | 4 (30 to 60% of the surface covered by the fungus turf) | 4 (30 to 60% of the surface covered by the fungus turf) | 4 (30 to 60% of the surface covered by the fungus turf) | 4 (30 to 60% of the surface covered by the fungus turf) | 4 (30 to 60% of the surface covered by the fungus turf) | –
11 | N#Cc1c(Cl)c(Cl)c(Cl)c(C#N)c1Cl [Tetrachloroisophthalodinitrile, reference compound] | – | – | – | – | – | – | – | – | – | – | – | – | – | – | 3 (10 to 30% of the surface covered by the fungus turf) | 2 (5 to 10% of the surface covered by the fungus turf) | 5 (60 to 100% of the surface covered by the fungus turf) | 4 (30 to 60% of the surface covered by the fungus turf) | 5 (60 to 100% of the surface covered by the fungus turf) | 5 (60 to 100% of the surface covered by the fungus turf) | fungus development on the surface of the nutrient solution (0-5) ([11]; 0.002%): 4 (30 to 60% of the surface covered by the fungus turf); fungus development on the surface of the nutrient solution (0-5) ([11]; 0.004%): 3 (10 to 30% of the surface covered by the fungus turf)
